Consider five compounds from ChEMBL document CHEMBL1201862, “PubChem BioAssay data set” (2004).

For assay [1], the target named is T1, Alkaline phosphatase, tissue-nonspecific isozyme (Homo sapiens, UniProt P05186).
T1 sequence (P05186 whole entry): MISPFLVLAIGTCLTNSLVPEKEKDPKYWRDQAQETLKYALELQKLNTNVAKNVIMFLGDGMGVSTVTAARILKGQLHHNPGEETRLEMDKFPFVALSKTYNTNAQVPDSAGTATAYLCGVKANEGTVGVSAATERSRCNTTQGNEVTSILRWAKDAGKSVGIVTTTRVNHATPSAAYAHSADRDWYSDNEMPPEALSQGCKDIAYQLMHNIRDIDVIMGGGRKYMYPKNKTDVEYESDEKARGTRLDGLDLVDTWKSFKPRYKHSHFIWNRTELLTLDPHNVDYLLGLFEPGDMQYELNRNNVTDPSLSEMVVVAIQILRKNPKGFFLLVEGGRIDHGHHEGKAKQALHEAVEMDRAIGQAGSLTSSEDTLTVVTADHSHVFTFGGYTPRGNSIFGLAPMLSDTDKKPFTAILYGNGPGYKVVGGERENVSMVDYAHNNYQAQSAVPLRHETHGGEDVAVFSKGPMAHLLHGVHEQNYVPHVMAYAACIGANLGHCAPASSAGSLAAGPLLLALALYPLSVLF
The assay can be described thus: TNAP enzyme inhibition by screening hits, dose response, selectivity assay for mouse IAP inhibitor project, biochemical, human TNAP, uHTS hits (AID 488906). It counts as functional.

Assay [2] addresses Intestinal-type alkaline phosphatase (Mus musculus, UniProt P24822). The assay can be described thus: PubChem AID 488785. It counts as functional.
The target of a further assay is T2, Streptokinase A (Streptococcus pyogenes serotype M1, UniProt P10520).
T2 sequence (P10520 whole entry): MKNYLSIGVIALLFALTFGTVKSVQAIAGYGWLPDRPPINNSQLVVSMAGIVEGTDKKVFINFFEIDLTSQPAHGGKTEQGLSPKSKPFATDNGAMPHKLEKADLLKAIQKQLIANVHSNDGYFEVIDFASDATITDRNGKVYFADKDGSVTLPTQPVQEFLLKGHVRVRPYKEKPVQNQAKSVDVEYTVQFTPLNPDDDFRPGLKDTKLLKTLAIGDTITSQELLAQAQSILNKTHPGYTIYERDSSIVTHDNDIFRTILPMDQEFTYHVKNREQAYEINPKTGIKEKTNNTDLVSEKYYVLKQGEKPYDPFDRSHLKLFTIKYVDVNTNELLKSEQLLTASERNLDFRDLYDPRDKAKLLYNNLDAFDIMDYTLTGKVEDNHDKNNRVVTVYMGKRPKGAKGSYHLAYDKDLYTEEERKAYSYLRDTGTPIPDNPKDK
The assay can be described thus: S. pyogenes streptokinase expression inhibitors, potency, dose response, plasminogen activation absorbance, OD405 (AID 1914).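 Also: secreted streptokinase activity via plasminogen activation per viability signal from cell pellet.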 It counts as functional, Streptococcus pyogenes M1 GAS.

Assay [3] concerns the target Intestinal-type alkaline phosphatase (Homo sapiens, UniProt P09923). In words: inhibition of human intestinal alkaline phosphatase – biochemical, dose response (AID 488876). It counts as functional.
Assay [4] is described as follows: cytotoxicity in HMLE control line with eGFP shRNA, dose response, counter-screen for HMLE_sh_ECad selective toxicity project, cell-based, HMLE_sh_eGFP, luminescence (AID 463074).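 Also: HMLE human mammary epithelial cells expressing control shRNA against eGFP.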 It counts as functional, Homo sapiens. (In general: Counterscreens check selectivity or assay interference.)
The nature of assay [5]: Luminescence Cell-Based Dose Retest to Confirm Inhibitors of Cancer Stem Cells. [Related pubchem assays (depositor defined):AID2717, AID2721]. Particulars: Homo sapiens. It counts as functional.
A short description of assay [6]: Artemis endonuclease inhibitor potency, dose response, biochemical, fluorescence intensity (AID 720701).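 Also: Artemis endonuclease enzyme.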 It counts as functional.
For the next assay, the target named is T3, Aspartyl aminopeptidase (Plasmodium falciparum 3D7, UniProt Q8I2J3).
T3 sequence (Q8I2J3 whole entry): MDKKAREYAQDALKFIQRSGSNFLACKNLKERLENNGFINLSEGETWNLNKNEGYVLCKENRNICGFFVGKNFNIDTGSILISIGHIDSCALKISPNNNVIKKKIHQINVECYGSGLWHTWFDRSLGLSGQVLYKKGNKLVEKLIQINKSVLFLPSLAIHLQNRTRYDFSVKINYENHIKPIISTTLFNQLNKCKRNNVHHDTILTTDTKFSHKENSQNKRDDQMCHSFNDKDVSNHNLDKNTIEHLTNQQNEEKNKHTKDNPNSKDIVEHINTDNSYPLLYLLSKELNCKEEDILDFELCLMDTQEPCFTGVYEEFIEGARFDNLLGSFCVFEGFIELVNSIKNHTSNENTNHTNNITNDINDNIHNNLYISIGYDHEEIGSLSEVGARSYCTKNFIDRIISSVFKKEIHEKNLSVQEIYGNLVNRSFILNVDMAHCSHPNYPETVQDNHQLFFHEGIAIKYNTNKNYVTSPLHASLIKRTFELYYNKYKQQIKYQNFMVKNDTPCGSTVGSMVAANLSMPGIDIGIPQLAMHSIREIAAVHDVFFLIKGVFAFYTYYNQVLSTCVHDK

Assay [7] addresses T4, Rac GTPase-activating protein 1 (Homo sapiens, UniProt Q9H0H5).
T4 sequence (Q9H0H5 whole entry): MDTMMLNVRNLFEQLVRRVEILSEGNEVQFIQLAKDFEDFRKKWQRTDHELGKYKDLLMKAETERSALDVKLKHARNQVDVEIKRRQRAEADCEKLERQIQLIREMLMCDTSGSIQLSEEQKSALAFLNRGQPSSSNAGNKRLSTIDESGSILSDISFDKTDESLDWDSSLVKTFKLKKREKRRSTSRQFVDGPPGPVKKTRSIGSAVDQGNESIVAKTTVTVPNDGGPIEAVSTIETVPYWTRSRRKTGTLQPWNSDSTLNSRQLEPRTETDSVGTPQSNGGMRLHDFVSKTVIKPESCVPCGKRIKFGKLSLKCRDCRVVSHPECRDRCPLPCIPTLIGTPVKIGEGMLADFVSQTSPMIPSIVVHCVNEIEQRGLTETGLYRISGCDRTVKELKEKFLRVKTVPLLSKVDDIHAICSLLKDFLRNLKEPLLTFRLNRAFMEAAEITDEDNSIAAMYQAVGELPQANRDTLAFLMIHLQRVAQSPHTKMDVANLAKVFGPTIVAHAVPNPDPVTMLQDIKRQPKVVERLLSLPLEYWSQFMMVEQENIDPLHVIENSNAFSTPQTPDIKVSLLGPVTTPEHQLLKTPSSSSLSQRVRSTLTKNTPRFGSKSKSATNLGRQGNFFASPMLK
The assay can be described thus: MgcRacGAP GTPase-activating activity inhibitors, confirmation, biochemical, ADP Hunter fluorescence, primary and confirmatory (AID 624330). It counts as functional.

Another assay concerns the target Procathepsin L (Homo sapiens, UniProt P07711).
A short description of assay [8]: HeLa cell cytotoxicity, dose response, cytotoxicity control for MgcRacGAP inhibitor project (AID 624300). It counts as functional.
The target in the next assay is Bcl-2-like protein 10 (Homo sapiens, UniProt Q9HD36). The assay can be described thus: displacers of TR3 peptide from Bcl-B, primary screen, selectivity assay for Bfl-1 inhibitor project, biochemical, fluorescence polarization, FITC-TR3 peptide (AID 748).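 Also: fluorescence polarization from a fluorescein-labelled TR3 peptide binding purified Bcl-B.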 In general terms: In fluorescence polarisation assays a small probe gives low polarisation when free and higher when bound to something large.
Chain of Bcl-2-like protein 10 (Q9HD36 whole entry): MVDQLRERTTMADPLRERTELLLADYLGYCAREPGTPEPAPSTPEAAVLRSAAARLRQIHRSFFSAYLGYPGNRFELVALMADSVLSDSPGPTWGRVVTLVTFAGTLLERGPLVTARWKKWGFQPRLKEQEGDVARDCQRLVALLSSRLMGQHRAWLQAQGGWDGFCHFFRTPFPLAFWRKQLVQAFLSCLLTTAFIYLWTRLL

The nature of assay [9]: inhibitors of intracellular T. cruzi replication, confirmation, NIH3T3 host cells, beta-gal luminescence (AID 2044).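 Also: intracellular parasites grown in NIH/3T3 mouse fibroblasts as host cells; luminescent beta-galactosidase reporter signal from transgenic T. cruzi replicating inside host cells; inhibitors lower the luminescence signal.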 It counts as functional, cell-based.
Assay [10] can be described thus: cytotoxicity toward NIH3T3 fibroblasts, dose response, counter-screen, cell-based, ATP luminescence, mouse fibroblasts (AID 2010).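 Also: cells exposed to compound for about 90 hours before reading.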 It counts as functional. The settings on record: NIH3T3.
The target of assay [11] is T5, DNA repair protein RAD52 homolog (Homo sapiens, UniProt P43351).
T5 sequence (P43351 whole entry): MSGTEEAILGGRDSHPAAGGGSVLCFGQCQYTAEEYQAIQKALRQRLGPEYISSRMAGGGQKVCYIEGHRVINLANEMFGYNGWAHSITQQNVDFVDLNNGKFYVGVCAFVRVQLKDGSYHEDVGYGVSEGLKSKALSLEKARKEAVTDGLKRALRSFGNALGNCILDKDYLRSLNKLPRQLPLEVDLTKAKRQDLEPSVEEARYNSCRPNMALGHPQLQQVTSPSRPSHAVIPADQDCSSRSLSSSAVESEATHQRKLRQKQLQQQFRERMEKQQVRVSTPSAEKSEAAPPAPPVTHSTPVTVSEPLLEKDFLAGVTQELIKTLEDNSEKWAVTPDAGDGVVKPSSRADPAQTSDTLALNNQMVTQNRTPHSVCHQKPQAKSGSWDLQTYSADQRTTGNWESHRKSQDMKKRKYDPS
It counts as functional, biochemical.

The target in assay [12] is T6, Ubiquitin-conjugating enzyme E2 N (Homo sapiens, UniProt P61088).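 Also: Dose-response confirmation in a TR-FRET assay detecting UBC13-driven polyubiquitin chain formation, inhibition measured.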
T6 sequence (P61088 whole entry): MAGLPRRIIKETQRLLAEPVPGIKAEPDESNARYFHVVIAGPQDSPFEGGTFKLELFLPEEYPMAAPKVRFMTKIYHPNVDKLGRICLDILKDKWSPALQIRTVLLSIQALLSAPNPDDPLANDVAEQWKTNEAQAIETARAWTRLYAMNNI
It counts as functional.

Assay [13] relates to HEK293. In words: cells. Particulars: Homo sapiens.
In assay [14] the test system is HEK293. The assay can be described thus: cells. Particulars: Homo sapiens. The source holds these as a separate data set.

Active and inactive are the calls of the source. Some results are limits rather than exact numbers.

Chain of Intestinal-type alkaline phosphatase (Homo sapiens, UniProt P09923) (P09923 whole entry): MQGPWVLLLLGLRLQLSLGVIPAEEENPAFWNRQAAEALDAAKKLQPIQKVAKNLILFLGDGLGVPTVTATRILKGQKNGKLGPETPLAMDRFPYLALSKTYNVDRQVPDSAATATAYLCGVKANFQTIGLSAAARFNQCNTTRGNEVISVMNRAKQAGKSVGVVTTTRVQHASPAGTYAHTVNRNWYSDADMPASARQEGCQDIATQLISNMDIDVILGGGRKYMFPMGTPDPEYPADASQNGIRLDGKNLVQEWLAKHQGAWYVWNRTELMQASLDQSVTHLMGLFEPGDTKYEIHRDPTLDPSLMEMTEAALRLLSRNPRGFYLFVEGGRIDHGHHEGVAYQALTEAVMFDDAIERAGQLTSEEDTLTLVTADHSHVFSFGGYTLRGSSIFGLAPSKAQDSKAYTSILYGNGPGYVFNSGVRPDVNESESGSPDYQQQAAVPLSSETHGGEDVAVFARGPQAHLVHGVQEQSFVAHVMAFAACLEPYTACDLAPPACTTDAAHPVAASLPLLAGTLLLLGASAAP
Chain of Intestinal-type alkaline phosphatase (Mus musculus, UniProt P24822) (P24822 whole entry): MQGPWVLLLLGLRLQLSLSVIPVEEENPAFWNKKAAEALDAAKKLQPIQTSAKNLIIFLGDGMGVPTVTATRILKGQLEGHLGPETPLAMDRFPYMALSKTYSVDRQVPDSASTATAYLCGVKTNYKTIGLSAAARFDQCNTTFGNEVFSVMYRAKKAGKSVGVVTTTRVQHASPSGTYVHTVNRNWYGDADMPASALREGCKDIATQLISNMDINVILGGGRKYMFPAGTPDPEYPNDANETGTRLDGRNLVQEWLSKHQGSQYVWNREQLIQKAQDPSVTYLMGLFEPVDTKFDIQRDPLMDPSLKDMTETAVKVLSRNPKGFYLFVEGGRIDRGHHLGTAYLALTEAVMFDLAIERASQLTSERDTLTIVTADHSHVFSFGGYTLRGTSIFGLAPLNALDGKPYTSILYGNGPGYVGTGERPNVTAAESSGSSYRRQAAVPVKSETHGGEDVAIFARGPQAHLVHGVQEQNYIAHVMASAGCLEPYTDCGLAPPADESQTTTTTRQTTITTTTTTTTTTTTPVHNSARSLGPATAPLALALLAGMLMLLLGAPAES
Chain of Procathepsin L (P07711 whole entry): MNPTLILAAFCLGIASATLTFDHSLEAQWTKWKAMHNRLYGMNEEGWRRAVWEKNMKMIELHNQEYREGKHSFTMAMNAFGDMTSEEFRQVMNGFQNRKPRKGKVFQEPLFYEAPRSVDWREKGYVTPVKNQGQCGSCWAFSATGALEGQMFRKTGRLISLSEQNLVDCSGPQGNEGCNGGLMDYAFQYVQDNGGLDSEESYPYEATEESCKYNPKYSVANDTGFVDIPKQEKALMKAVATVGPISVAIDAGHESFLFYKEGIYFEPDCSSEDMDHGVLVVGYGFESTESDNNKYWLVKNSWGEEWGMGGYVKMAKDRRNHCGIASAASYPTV

Turning to `Cc1cc(Cl)ccc1NC(=S)NCCC(c1ccccc1)c1ccccc1`, the IC50 in assay [1] is 80.1 µM (active); in [2], 7.04 µM (active); in [3] it was > 100 µM (inactive). In addition, the EC50 on Streptokinase A was 48.5 µM (active).

For `CN(c1ccccc1)S(=O)(=O)c1ccc(-c2ccccc2)cc1`, the AC50 in assay [4] is 62.2 µM (active); in assay [5] it was 2.66 µM (active).

For `O=C(COc1ccccc1C(=O)N/N=C\c1ccc(O)c(O)c1)N/N=C/c1ccc(O)c(O)c1`, the IC50 is 1.91 µM (active) in assay [6]; 1.5 µM (active) at Aspartyl aminopeptidase; > 100 µM (inactive) in assay [1]; 12.8 µM (active) in assay [2]; 21.1 µM (active) in assay [7]; > 59.6 µM (not active) against Procathepsin L. Also, the IC50 is > 100 µM (inactive) in assay [3] and 1.07 µM (active) on Bcl-2-like protein 10. The CC50 in assay [8] is 100 µM (active).

Take `Cc1cc(N2CCN(C)CC2)nc2ccc(NC(=S)N3CCN(c4ccc(Cl)cc4)CC3)cc12`: the AC50 in assay [4] is 184 µM (active); in assay [11] it was 3.07 µM (active); in [5], 0.367 µM (active). Moreover, the EC50 in assay [9] is 0.762 µM (active); in assay [10] it was 11.9 µM (active). Also, the IC50 in [12] is > 20 µM (inactive).

Consider `C1COCCO1.CCOc1ccc(N2C(=O)CC(N(CCc3ccc(OC)c(OC)c3)C(S)=Nc3ccccc3)C2=O)cc1` (stereo not drawn), for which the EC50 in the assay on HEK293 [13] and in the assay with HEK293 [14] was > 59.7 µM (inactive) in each case.

The IC50 is the concentration at which inhibition is half-maximal. Broadly, the EC50 is the concentration giving half of the maximal effect. As a reminder, the AC50 is the midpoint of the concentration-response curve, whichever way the signal moves. The CC50 is the concentration at which the toxic effect on the cells reaches its halfway point.
